This note sets out measurements from ChEMBL document CHEMBL1201862, “PubChem BioAssay data set” (2004).

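All cell lines were grown in 96-well plates and treated with compound for 48 hours. Abbreviation: GI50, concentration required for 50% inhibition of growth.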 The source made the active and inactive calls. Rule as the data show it: active = GI50 up to about 1.1 µM and inactive = higher.

Test systems include LOX IMVI; SNB-75; UO-31; HOP-62; OVCAR-8; SK-MEL-28; SK-MEL-2; 786-0; OVCAR-3; OVCAR-4; XF498; HT-29; IGROV-1; M14; SF-539; HCT-15; SR; T47D; HCC 2998; PC-3.
Holding throughout (test): growth of human tumour cells (NCI), 48 h

For the compound `Cc1cc(C)nc(NS(=O)(=O)c2ccc(NC(=O)c3cccc4cc5ccccc5nc34)cc2)n1`, the GI50 in the test with LOX IMVI is 22.9 µM (inactive); in the test on SNB-75 it was 51.4 µM (inactive); with UO-31, 53.8 µM (inactive); with HOP-62, 62.7 µM (inactive); with OVCAR-8, 33 µM (inactive); in the test on SK-MEL-28 it was 31.2 µM (inactive). Also, the GI50 was 30.3 µM (inactive) with SK-MEL-2; 39.5 µM (inactive) with 786-0; 24.8 µM (inactive) in the test with OVCAR-3; 32.8 µM (inactive) in the test with OVCAR-4; 25.3 µM (inactive) in the test on XF498; 35.8 µM (inactive) with HT-29. The GI50 is 35.5 µM (inactive) with IGROV-1, 24.2 µM (inactive) in the test on M14, 15.3 µM (inactive) in the test with SF-539 and 21 µM in the test with HCT-15.
Consider `N=C(N)N/N=C/c1c(-c2ccc(Cl)c([N+](=O)[O-])c2)nc2sccn12`, for which the GI50 is 2.22 µM (inactive) in the test with LOX IMVI; 1.62 µM (inactive) with SNB-75; 1.85 µM (inactive) in the test on UO-31; 1.85 µM (inactive) in the test with HOP-62; 2.11 µM (inactive) with OVCAR-8; 4.08 µM (inactive) with SK-MEL-28. The GI50 in the test with SK-MEL-2 is 1.85 µM (inactive); in the test on 786-0, 1.73 µM (inactive); in the test on OVCAR-3, 1.34 µM (inactive); with OVCAR-4, 1.79 µM (inactive); with HT-29 it was 1.52 µM (inactive); in the test on SR, 2.05 µM (inactive). For the same compound, the GI50 is 1.72 µM (inactive) in the test with IGROV-1; 1.8 µM (inactive) with M14; 1.82 µM (inactive) in the test on SF-539; 2.21 µM in the test on HCT-15; 0.493 µM (active) with T47D; 1.6 µM (inactive) in the test with HCC 2998. Also, the GI50 in the test on PC-3 was 1.65 µM (inactive).
On to `COc1c2c(cc3c1-c1c(cc4c(c1OC)OCO4)C1OC3C(C)C1C)OCO2.COc1cc2c(c(OC)c1OC)-c1c(cc3c(c1OC)OCO3)C1OC2C(C)C1C` (stereo not drawn), for which the GI50 in the test with LOX IMVI is 68.4 µM (inactive); with SNB-75, 33 µM (inactive); in the test with UO-31, 94.8 µM (inactive); with HOP-62, > 100 µM (inactive); in the test with OVCAR-8, 57 µM (inactive); in the test on SK-MEL-28 it was > 100 µM (inactive). Moreover, the GI50 in the test with SK-MEL-2 is > 100 µM (inactive); in the test on 786-0 it was > 100 µM (inactive); in the test with OVCAR-3 it was 84.5 µM (inactive); in the test with OVCAR-4, > 100 µM (inactive); in the test with HT-29, 88.7 µM (inactive); in the test on SR it was > 100 µM (inactive). Also, the GI50 with IGROV-1 was 70.6 µM (inactive); with M14, > 100 µM (inactive); with SF-539 it was > 100 µM (inactive); with HCT-15, 67.9 µM; with T47D, 26.1 µM (inactive); with HCC 2998 it was 56.4 µM (inactive). In addition, the GI50 in the test with PC-3 was 37.8 µM (inactive).
As for `CC(C)NC(=O)OCc1c(COC(=O)NC(C)C)c(-c2ccc[n+](COC(=O)C3CC3)c2)n2c1CCC2`, the GI50 with LOX IMVI was 38.8 µM (inactive); in the test with SNB-75 it was 70.6 µM (inactive); in the test on UO-31, 41.2 µM (inactive); in the test with HOP-62, 49.1 µM (inactive); in the test with OVCAR-8 it was 55 µM (inactive); in the test with SK-MEL-28, > 100 µM (inactive). Also, the GI50 was 57.1 µM (inactive) with SK-MEL-2; 27 µM (inactive) in the test with 786-0; > 100 µM (inactive) with OVCAR-3; 45.8 µM (inactive) in the test on OVCAR-4; 79.4 µM (inactive) with HT-29; 3.51 µM (inactive) in the test with SR. Besides, the GI50 in the test on IGROV-1 is > 100 µM (inactive); with M14 it was 85.9 µM (inactive); in the test on SF-539, 44.7 µM (inactive); with HCT-15, 87.3 µM; with T47D, 86.7 µM (inactive); in the test with HCC 2998 it was > 100 µM (inactive). In the test with PC-3, the GI50 is 50.5 µM (inactive).
In the case of `O=C1NC(SSC2=NNC3(C(=O)N2)c2ccccc2-c2ccccc23)=NNC12c1ccccc1-c1ccccc12`, the GI50 in the test with LOX IMVI, with SNB-75, in the test with UO-31, in the test with HOP-62, with OVCAR-8 and in the test with SK-MEL-28 was > 10 µM (inactive) each time. Further, the GI50 in the test on SK-MEL-2, in the test with 786-0, with OVCAR-3, with OVCAR-4, with HT-29 and in the test with SR was > 10 µM (inactive) in each case. Further, the GI50 in the test with IGROV-1 is > 10 µM (inactive); in the test with M14 it was > 10 µM (inactive); with SF-539, > 10 µM (inactive); with HCT-15, more than 10 µM; in the test on T47D it was > 10 µM (inactive); in the test on HCC 2998 it was > 10 µM (inactive). In addition, the GI50 in the test with PC-3 was > 10 µM (inactive).
Take `CS(=O)(=O)C[S+]([O-])C[S+]([O-])C[S+]([O-])CC(NC(=O)CCC(N)C(=O)O)C(=O)O` (stereo not drawn): the GI50 with LOX IMVI, in the test on SNB-75, with UO-31, in the test with HOP-62, in the test with OVCAR-8 and in the test on SK-MEL-28 was > 100 µM (inactive) throughout. Moreover, the GI50 in the test on SK-MEL-2 was > 100 µM (inactive); with 786-0 it was > 100 µM (inactive); in the test with OVCAR-3, > 100 µM (inactive); with OVCAR-4 it was > 100 µM (inactive); in the test with HT-29, > 100 µM (inactive); in the test on SR, 16.3 µM (inactive). For the same compound, the GI50 with IGROV-1 is > 100 µM (inactive); in the test on M14 it was > 100 µM (inactive); with SF-539 it was > 100 µM (inactive); in the test with HCT-15 it was more than 100 µM; in the test with T47D it was > 100 µM (inactive); in the test with HCC 2998, > 100 µM (inactive). Moreover, the GI50 in the test on PC-3 was > 100 µM (inactive).
As for `CC1=NN2C(=N)/C(=C/c3ccccc3)C(=O)N=C2S1`, the GI50 in the test on LOX IMVI, with SNB-75, in the test on UO-31, with HOP-62, in the test with OVCAR-8 and with SK-MEL-28 was > 100 µM (inactive) in each case. The GI50 with SK-MEL-2, in the test on 786-0, in the test on OVCAR-3, in the test on OVCAR-4, in the test with HT-29 and in the test with SR was > 100 µM (inactive) each time. For the same compound, the GI50 in the test on IGROV-1 was > 100 µM (inactive); in the test on M14, > 100 µM (inactive); with SF-539 it was > 100 µM (inactive); with HCT-15 it was more than 100 µM; with T47D it was > 100 µM (inactive); in the test with HCC 2998 it was > 100 µM (inactive). Moreover, the GI50 in the test with PC-3 is > 100 µM (inactive).
As for `COc1nc(Cl)c(Cl)c(Cl)n1.COc1nc(Cl)nc(Cl)c1Cl`, the GI50 was 2.66 µM (inactive) with LOX IMVI; 10.3 µM (inactive) in the test on SNB-75; 0.893 µM (active) in the test with UO-31; 2.92 µM (inactive) with HOP-62; 2.89 µM (inactive) in the test with OVCAR-8; 14 µM (inactive) in the test with SK-MEL-28. The GI50 in the test with SK-MEL-2 was 7.62 µM (inactive); with 786-0, 14.2 µM (inactive); in the test with OVCAR-3, 3.95 µM (inactive); in the test with OVCAR-4, 6.07 µM (inactive); in the test on HT-29 it was 6.9 µM (inactive); in the test on SR, 0.09 µM (active). Besides, the GI50 is 4.53 µM (inactive) in the test on IGROV-1; 8.36 µM (inactive) with M14; 9.35 µM (inactive) in the test on SF-539; 2.19 µM with HCT-15; 2.29 µM (inactive) in the test on T47D; 0.252 µM (active) in the test with HCC 2998. Further, the GI50 in the test with PC-3 was 2.66 µM (inactive).
Regarding `C[C@@H]1[C@H](C)N1CC(O)Cn1ccnc1[N+](=O)[O-]` (stereo partly drawn), the GI50 with LOX IMVI, with SNB-75, in the test with UO-31, in the test with HOP-62, in the test with OVCAR-8 and in the test on SK-MEL-28 was > 100 µM (inactive) in each case. In addition, the GI50 with SK-MEL-2, in the test on 786-0, with OVCAR-3, in the test on OVCAR-4, with HT-29 and in the test with SR was > 100 µM (inactive) throughout. Moreover, the GI50 was > 100 µM (inactive) with IGROV-1; > 100 µM (inactive) in the test with M14; > 100 µM (inactive) in the test on SF-539; more than 100 µM in the test with HCT-15; > 100 µM (inactive) in the test on T47D; > 100 µM (inactive) in the test on HCC 2998. In addition, the GI50 in the test with PC-3 is > 100 µM (inactive).
Take `COc1ccc(OC)c(/C=C/c2cnnc3ccccc23)c1`: the GI50 in the test on LOX IMVI is 3.48 µM (inactive); in the test with SNB-75, 4.19 µM (inactive); in the test with UO-31, 5.08 µM (inactive); with HOP-62 it was 4.12 µM (inactive); in the test with OVCAR-8, 7.5 µM (inactive); with SK-MEL-28, 8.47 µM (inactive). For the same compound, the GI50 was 2.16 µM (inactive) in the test with SK-MEL-2; 6.67 µM (inactive) with 786-0; 3.94 µM (inactive) in the test with OVCAR-3; 5.48 µM (inactive) in the test on OVCAR-4; 5.31 µM (inactive) with HT-29; 1.51 µM (inactive) with SR. Besides, the GI50 in the test with IGROV-1 was > 10 µM (inactive); in the test with M14, 5.21 µM (inactive); with SF-539 it was 2.39 µM (inactive); in the test with HCT-15 it was 1.96 µM; with T47D it was > 10 µM (inactive); in the test on HCC 2998 it was 5.27 µM (inactive). In addition, the GI50 with PC-3 is 7.69 µM (inactive).
Consider `CC1(C)C(O)OC(O)C1(C)C` (stereo not drawn), for which the GI50 in the test with LOX IMVI is 46.9 µM (inactive); with SNB-75, 35.2 µM (inactive); with UO-31, 57.3 µM (inactive); in the test with HOP-62 it was > 100 µM (inactive); with OVCAR-8, 41.8 µM (inactive); with SK-MEL-28, 43.4 µM (inactive). For the same compound, the GI50 in the test with SK-MEL-2 was 89.7 µM (inactive); in the test with 786-0 it was 93.1 µM (inactive); with OVCAR-3, 30.9 µM (inactive); in the test with OVCAR-4, > 100 µM (inactive); with XF498 it was 47 µM (inactive); in the test with HT-29, 62.4 µM (inactive). Besides, the GI50 in the test with IGROV-1 was > 100 µM (inactive); in the test on M14 it was 65.2 µM (inactive); with HCT-15 it was 28.1 µM; in the test with HCC 2998, > 100 µM (inactive).
